# Assay results taken from article PMC12700558, “Aggregation shifts amyloid-β peptides from synaptogenic to synaptotoxic” (The Journal of Clinical Investigation, 2025).
# “And” between values parts separate entries of the source, which are not always exact repeats. Equal values may be shown once.
# Legend:
# [1] = test system: human neurons cocultured with mouse glia (entire glia/neuron coculture)
# Procedure: (§1) The MTT assay employs yellow tetrazolium dye that is reduced to a purple formazan crystal by viable cells with active metabolism ([21]). Because it measures metabolic activity in all cells, this assay serves as a broad cytotoxicity read out for the entire glia/neuron coculture system. The amount of formazan produced is then measured because it is directly proportional to the number of viable cells ([21]) (Figure 1B and Supplemental Figure 1A). The nuclear localization TdTomato assay, conversely, enables monitoring of cellular stress by tracking the localization of fluorescent TdTomato fused to a nuclear localization signal. Under healthy conditions, the nuclear localization signal directs the NLS-TdTomato to the nucleus. When toxicity in a cell causes a reduction in ATP levels, NLS-TdTomato leaks out of the nucleus into the cytoplasm, which we scored as an index of toxicity (Figure 1, C and D, and Supplemental Figure 1, B–D). Because the reporter is expressed only in neurons, this assay specifically assesses neurotoxicity within the coculture. We developed this assay because it can be performed on live cells and reflects decreases in ATP levels in these cells. The NLS-TdTomato assay was validated by treating cultures with 5% DMSO and 200 μM hydrogen peroxide, 2 well-established neurotoxins. […]
# [2] = test system: human neurons; assay: NLS-TdTomato cytotoxicity assay (cytoplasmic leakage of NLS-TdTomato)
# Procedure: as §1, with “cells.” for “cells. The NLS-TdTomato assay was validated by treating cultures with 5% DMSO and 200 μM hydrogen peroxide, 2 well-established neurotoxins.”
# To assess neuronal cytotoxicity induced by Aβ peptides, we employed a novel Td-Tomato cytotoxicity assay that we developed. […] Neurons displaying cytoplasmic Td-Tomato were counted as indicators of cytotoxicity. […]
# [3] = test system: human neurons; assay: GCaMP6m live imaging of Ca2+ signals (network activity); assay type: cell-based; parameters: Ca2+ imaging: Frequency / Ca2+ imaging: Amplitude: unit not given here; settings: for Ca2+ imaging: Amplitude / Ca2+ imaging: Frequency / Ca2+ imaging: Synchronicity: single biological replicates (batches), n=3, listed as Ab42 arctic mutation
# Procedure: To evaluate the effects of Aβ peptide treatments on neuronal network activity, live calcium imaging was performed using human neurons expressing the genetically encoded calcium indicator GCaMP. At DIV6, human neurons were infected with a lentiviral vector, prepared as described previously at Virus generation, carrying a plasmid encoding GCaMP6m under the control of the human Synapsin-1 promoter, ensuring neuron-specific expression. […] At DIV45, when the neurons had reached full maturation, synaptic activity was recorded. For potentiating synaptic transmission of human neurons, the cells were imaged with ambient 4 mM CaCl2 and 8 mM KCl equilibrated in a HEPES-based buffer (140 mM NaCl, 10 mM HEPES, 20 mM glucose, 1 mM MgCl2). […] Neuronal activity was captured in 2-minute videos at a frame rate of 10 frames/second, allowing for the detection of spontaneous calcium transients indicative of neuronal firing. Following acquisition, the videos were analyzed using MATLAB software (MathWorks). Regions of interest (ROIs) corresponding to 10–20 neurons were selected, and fluorescence intensity changes over time were extracted for each ROI. Analyses focused on quantifying the frequency, amplitude, and synchronicity of calcium signal peaks across the neuronal network. Signal peaks were identified using a peak detection algorithm, and synchronicity was assessed through cross-correlation analyses between neuronal pairs or by calculating network synchrony measures ([26]).
# [4] = test system: human neurons cocultured with mouse glia; settings: chronic exposure DIV6-DIV45, neurotoxic doses
# Text: The Incucyte Cytotox Green assay, finally, monitors membrane integrity using a DNA dye that gains access to nuclei only when the plasma membrane is compromised (Supplemental Figure 1, F and G).
# To obtain a live cell read out of neuronal death, we monitored loss of plasma-membrane integrity with Incucyte Cytotox Green reagent (Sartorius), a cell-impermeant DNA dye that fluoresces upon binding to nuclear DNA once the membrane is breached ([48]). A 250× stock supplied by the manufacturer was thawed on ice and diluted into prewarmed culture medium to a final working concentration of 250 nM immediately before use. For each assay plate, half the medium was removed and replaced with dye-containing medium so that the final dye concentration and vehicle composition were identical across all conditions. For validation, DIV30 cocultures were challenged for 4 hours with 200 μM H2O2; fluorescence images were acquired immediately thereafter. […] Dye was present for 2 hours before imaging to allow equilibrium without inducing additional stress. Ten nonoverlapping fields per well were captured with the 20× objective using green fluorescence channels. Exposure settings were kept constant within an experiment. Images were processed with ImageJ. A top-hat background subtraction was applied to the green channel, and a fluorescence threshold was kept constant across batches. […]
# [5] = concentrations that proved synaptotoxic, DIV45
substance,measurement,setting,value
-.DAEFRHDSGYEVHHQKLVFFAGDVGSNKGAIIGLMVGGVVI.A [Aβ42^arctic],"Concentration at which neurotoxic, MTT assay",[1],greater than or equal to 0.025 μM
same,"Concentration at which neurotoxicity became apparent, NLS-TdTomato assay",[2],greater than or equal to 0.1 μM
same,Neuronal network activity (in words),"[3]; any concentration, chronic treatment, DIV45",did not enhance neuronal network activity at any concentration
same,Spike frequency and amplitude (in words),[3]; [5],pronounced fall
same,Synchrony (in words),[3]; [5],near-complete breakdown
same,Ca2+ imaging: Amplitude,[3]; peptide 0.1 uM,0.4784 and 0.3202 and 0.4832
same,Ca2+ imaging: Frequency,[3]; peptide 0.1 uM,10.7529 and 5.405 and 6.996
same,Ca2+ imaging: Synchronicity,[3]; peptide 0.1 uM,0.2834 and 0.2877 and 0.3503
same,Ca2+ imaging: Amplitude,[3]; peptide 0.2 uM,0.3279 and 0.286 and 0.3267
same,Ca2+ imaging: Frequency,[3]; peptide 0.2 uM,0.6879 and 0.8917 and 1.347
same,Ca2+ imaging: Synchronicity,[3]; peptide 0.2 uM,0.2149 and 0.1382 and 0.2492
same,"Incucyte Cytotox Green assay, labeled nuclei (in words)",[4],modest but consistent rise in labeled nuclei
